Values of other authors, collected in patent US20100173381A1, “CRYSTAL STRUCTURES OF HIV-1 PROTEASE INHIBITORS BOUND TO HIV-1 PROTEASE” (UNIVERSITY OF MASSACHUSETTS, priority 2006, published 2010).

What was measured:
HIV-1 protease = HIV-1 protease (Human immunodeficiency virus type 1 group M subtype B, UniProt P04585)
[1] = system: the virus in cell cultures
[2] = humans
HIV-1 protease mutants = details: M46I, T80I, P81S
drug-resistant HIV-1 = details: versus clinical protease inhibitors APV, LPV, ATV, SQV, IDV, NFV

SMILES	inhibitory properties (HIV-1 protease)	potency against the virus in cell cultures [1]	oral bioavailability [2]	resistance of quadruple-viral mutant (HIV-1 protease mutants; K45R)	resistance of single-, double- or triple-viral mutants (HIV-1 protease mutants; mutants from K45R)	cross-resistance profile (drug-resistant HIV-1)	potency against drug-resistant proteases (drug-resistant proteases)
Nc1cccc(CN2C(=O)N(Cc3cccc(N)c3)[C@H](Cc3ccccc3)[C@H](O)[C@@H](O)[C@H]2Cc2ccccc2)c1 [DMP-450]	excellent inhibitory properties	highly potent	orally bioavailable				
COC(=O)N[C@H](C(=O)NCCCC[C@@H](CO)N(CC(C)C)S(=O)(=O)c1ccc(N)cc1)C(c1ccccc1)c1ccccc1 [PL-100]				only mild resistance	did not show resistance	favorable cross-resistance profile	highly potent
